According to patent publication US8071640B2, “Urea oligomers, their preparation process and pharmaceutical compositions containing them” (Centre National de la Recherche Scientifique, priority 2001, dated 2011):
Like-named read-outs stand apart in the source and are kept apart here.

Tests used:
erythrocytes = test: Hemolysis test; assay type: cell-based, monkey (macaque); conditions: 100 μg per ml of suspension (positive control); macaque erythrocytes, one hour at 37° C.
Experimental: A compound acting on the membranes of bacteria can potentially disturb the membranes of mammalian cells. The red blood cells or erythrocytes serves as a model of eukaryotic cells where the degree of membrane permeation is easily evaluated by measuring the quantity of hemoglobin released through the pores of the embrittled membranes and the concentration of which is directly proportional to the optical density at 450 nm.
The erythrocytes are prepared from freshly sampled monkey blood (macaque). The heparinized blood is centrifuged and washed three times with cold PBS and resuspended at 10% (v/v) in PBS. 10 μl of an aqueous solution of the products to be tested are added to 90 μl of suspension of red blood cells. The erythrocytes are incubated for one hour at 37° C. The suspension is centrifuged in order to recover the supernatant which is more or less red depending on the degree of hemolysis. The concentration of hemoglobin released in the supernatant is measured by the optical density at 450 nm. In the negative control the red blood cells are incubated in the absence of product and show an OD of 0.100% hemolysis is obtained with 100 μg cetylpyridinium chloride per ml of suspension. The degree of hemolysis is evaluated with respect to the positive control for the different concentrations of the products tested.

Neurospora crassa = assay type: cell-based
Experimental: (§1) The compounds tested all form part of the polyurea class and were obtained in the laboratory by chemical route. Tests for the inhibition of the growth of bacteria and fungi were carried out in liquid tests. The specific activity of each molecule is expressed by the minimal inhibitory concentration on the growth of the bacteria and/or fungi, called MIC. The MIC is a value specific to each compound and varies as a function of the organisms tested. It should be noted that the MIC values follow a logarithmic progression, which is due to a two-by-two dilution of the compounds tested in a series of tests. The molecules tested were presented in the form of salts which are soluble in water and thus the culture medium of the microorganisms. The antifungal tests are carried out in similar fashion with ½ PDB (Potato dextrose broth, Difco) as culture medium and 10,000 spores per ml of culture. An optical control under a reverse microscope is necessary in the case of the fungi in order to evaluate the formation of the mycelia of the filamentous fungi (Aspergillus fumigatus, Neurospora crassa). The CMC is determined after culture for 48 hours at 29° C. and corresponds to the concentration where no formation of mycelium is observed.

Aspergillus fumigatus = assay type: cell-based
Experimental: as §1

Salmonella cloacae = assay type: cell-based
Experimental: (§2) The compounds tested all form part of the polyurea class and were obtained in the laboratory by chemical route. Tests for the inhibition of the growth of bacteria and fungi were carried out in liquid tests. The specific activity of each molecule is expressed by the minimal inhibitory concentration on the growth of the bacteria and/or fungi, called MIC. The MIC is a value specific to each compound and varies as a function of the organisms tested. It should be noted that the MIC values follow a logarithmic progression, which is due to a two-by-two dilution of the compounds tested in a series of tests. The molecules tested were presented in the form of salts which are soluble in water and thus the culture medium of the microorganisms.
(§3) For carrying out the tests, 96-well plates were used. Each well contains 90 μl of a suspension of bacteria diluted in PB medium (Poor Broth, Difco) in order to have a final concentration of 1 mOD. 10 μl of compound in solution in sterile water at concentrations ranging from 1 mg/ml to 2 μg/ml are added to the tests. The plates are placed under stirring at 29° C. for 24 hours. The growth of the bacteria is measured by measuring the turbidity of the culture medium and measuring the OD at 595 nm. The value of the MIC corresponds to the concentration of the substances to be tested where no growth of bacteria is noted (OD=0).

E. coli D363 = assay type: cell-based
Experimental: as §2, §3

Staphylococcus aureus = assay type: cell-based; conditions: 24 h
Experimental: as §2, §3

Micrococcus luteus = assay type: cell-based
Experimental: as §2, §3

Pseudomonas aeruginosa = assay type: cell-based
Experimental: as §2, §3

Row | Compound | hemolysis (erythrocytes) [%] | Minimum inhibitory concentration (Neurospora crassa; 48 h) [µM] | Minimum inhibitory concentration (Neurospora crassa; Neurospora crassa, ½ PDB, 10,000 spores per ml, 48 hours at 29° C.) [µg/mL] | Minimum inhibitory concentration (Aspergillus fumigatus; 48 h) [µM] | Minimum inhibitory concentration (Aspergillus fumigatus; Aspergillus fumigatus, ½ PDB, 10,000 spores per ml, 48 hours at 29° C.) [µg/mL] | Minimum inhibitory concentration (Salmonella cloacae; 24 h) [µM] | Minimum inhibitory concentration (Salmonella cloacae; Salmonella cloacae, PB medium, 24 hours at 29° C.) [µg/mL] | Minimum inhibitory concentration (E. coli D363; D363, 24 h) [µM] | Minimum inhibitory concentration (E. coli D363; E. coli D363, PB medium, 24 hours at 29° C.) [µg/mL] | Minimum inhibitory concentration (Staphylococcus aureus) [µg/mL] | Minimum inhibitory concentration (Micrococcus luteus; 24 h) [µM] | Minimum inhibitory concentration (Micrococcus luteus; Micrococcus luteus, PB medium, 24 hours at 29° C.) [µg/mL] | Minimum inhibitory concentration (Pseudomonas aeruginosa; 24 h) [µM] | Minimum inhibitory concentration (Pseudomonas aeruginosa; Pseudomonas aeruginosa, PB medium, 24 hours at 29° C.) [µg/mL]
1 | CCCCCCCCCCCCCCCC[n+]1ccccc1 [cetylpyridinium chloride] | 100 |  |  |  |  |  |  |  |  |  |  |  |  | 
2 | H-YLVFKAVY-NH2 [Peptide L (control), H-Tyr-Leu-Val-Phe-Lys-Ala-Val-Tyr-NH2] |  | 20 | 30 | 82 | 121 | 2.6 | 3.8 | 2.6 | 3.8 | >121 | 2.6 | 3.8 | 82 | 121
